# Laboratory results taken from ChEMBL document CHEMBL1201862, “PubChem BioAssay data set” (2004).
# Calls of active or inactive are those of the source.
# Tests used:
# Insulin-degrading enzyme [1] = biological target: T1, Insulin-degrading enzyme (Homo sapiens, UniProt P14735); test: activators of recombinant IDE enzyme, dose response, counter-screen for IDE activator project, biochemical, fluorescence polarization (AID 588681)
# T1 sequence (P14735 whole entry): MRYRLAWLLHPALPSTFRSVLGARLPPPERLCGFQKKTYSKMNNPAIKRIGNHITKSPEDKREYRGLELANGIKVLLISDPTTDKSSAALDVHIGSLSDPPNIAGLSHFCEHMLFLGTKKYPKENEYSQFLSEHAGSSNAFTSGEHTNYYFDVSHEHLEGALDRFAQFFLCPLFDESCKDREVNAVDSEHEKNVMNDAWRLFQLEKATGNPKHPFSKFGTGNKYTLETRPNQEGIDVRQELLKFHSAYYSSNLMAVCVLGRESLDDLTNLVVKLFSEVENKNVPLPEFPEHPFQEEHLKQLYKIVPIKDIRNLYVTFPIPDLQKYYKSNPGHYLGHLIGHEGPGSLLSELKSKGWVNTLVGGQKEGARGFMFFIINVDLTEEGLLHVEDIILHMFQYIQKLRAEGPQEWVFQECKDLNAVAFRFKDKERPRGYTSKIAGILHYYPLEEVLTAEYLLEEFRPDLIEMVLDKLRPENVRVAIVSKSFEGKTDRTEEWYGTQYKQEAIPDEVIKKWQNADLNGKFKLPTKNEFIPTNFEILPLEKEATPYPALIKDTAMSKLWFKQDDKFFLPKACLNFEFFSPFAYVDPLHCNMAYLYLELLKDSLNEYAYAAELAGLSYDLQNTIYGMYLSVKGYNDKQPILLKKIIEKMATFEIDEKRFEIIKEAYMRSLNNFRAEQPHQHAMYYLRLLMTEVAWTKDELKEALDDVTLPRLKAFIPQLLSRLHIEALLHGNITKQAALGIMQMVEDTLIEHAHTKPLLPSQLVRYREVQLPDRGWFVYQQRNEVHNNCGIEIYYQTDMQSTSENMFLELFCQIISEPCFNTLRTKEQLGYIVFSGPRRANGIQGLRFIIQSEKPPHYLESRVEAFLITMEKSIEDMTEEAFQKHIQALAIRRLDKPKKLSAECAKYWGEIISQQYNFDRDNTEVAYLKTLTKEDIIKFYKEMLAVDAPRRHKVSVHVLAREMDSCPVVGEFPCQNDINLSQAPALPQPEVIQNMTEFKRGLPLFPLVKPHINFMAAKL
# Insulin-degrading enzyme [2] = biological target: T1, Insulin-degrading enzyme; test: activators of endogenous IDE in HEK cells, dose response, cell-based, fluorescence polarization (AID 588439); format: functional
# HEK293 [3] = test: HEK cell cytotoxicity by LDH release, dose response, cytotoxicity control for IDE activator project, fluorescence, HEK cells (AID 588440); format: functional, cell-based; conditions: Homo sapiens;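 note: cytotoxicity by LDH release measuring loss of membrane integrity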
# HEK293 [4] = test: optical interference in Abeta FP readout, dose response, artefact control for IDE activator project, biochemical, fluorescence polarization (AID 588442); format: functional, cell-based; conditions: Homo sapiens
# Escherichia coli = test: microbe, parasite or virus in culture
# [5] = intracellular Trypanosoma cruzi inhibitors in host cells – cell-based, plate reader, cherry-pick samples, set 3, dose response (AID 651818); format: functional;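 note: compounds incubated with infected cells for about four days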
# [6] = biological target: T2, Corticotropin-releasing factor receptor 2/Corticotropin-releasing factor-binding protein (Homo sapiens, UniProt P24387+Q13324); test: activators of CRF receptor 2 with binding protein – uHTS hits, confirmation (AID 602473); format: functional; conditions: read-out: EC50_Mean
# T2 sequence (Q13324 whole entry): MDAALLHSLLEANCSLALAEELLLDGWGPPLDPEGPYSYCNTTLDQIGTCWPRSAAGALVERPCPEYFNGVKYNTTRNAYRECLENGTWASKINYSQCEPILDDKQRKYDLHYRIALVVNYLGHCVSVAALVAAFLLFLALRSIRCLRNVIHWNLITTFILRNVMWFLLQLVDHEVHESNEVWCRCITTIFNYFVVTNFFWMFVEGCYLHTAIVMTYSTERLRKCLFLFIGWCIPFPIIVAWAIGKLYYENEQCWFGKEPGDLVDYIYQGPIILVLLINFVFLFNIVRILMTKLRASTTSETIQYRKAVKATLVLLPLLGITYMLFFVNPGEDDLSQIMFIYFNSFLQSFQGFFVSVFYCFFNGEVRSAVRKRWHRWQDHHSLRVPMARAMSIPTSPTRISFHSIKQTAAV
# T2 sequence (P24387 whole entry): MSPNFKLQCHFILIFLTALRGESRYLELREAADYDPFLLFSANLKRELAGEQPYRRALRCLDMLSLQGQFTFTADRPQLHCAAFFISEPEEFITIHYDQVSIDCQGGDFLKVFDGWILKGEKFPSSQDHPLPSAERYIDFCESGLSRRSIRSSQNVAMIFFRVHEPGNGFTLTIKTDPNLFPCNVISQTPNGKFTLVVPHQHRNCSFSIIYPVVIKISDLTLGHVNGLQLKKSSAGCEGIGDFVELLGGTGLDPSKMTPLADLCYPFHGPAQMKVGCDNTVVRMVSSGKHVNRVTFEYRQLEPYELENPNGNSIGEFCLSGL
# [7] = biological target: T3, DNA repair and recombination protein RAD54-like (Homo sapiens, UniProt Q92698); test: inhibitors of human RAD54 branch migration, confirmation, biochemical, fluorescence, cherry-picked samples, dose series (AID 651657); format: functional
# T3 sequence (Q92698 whole entry): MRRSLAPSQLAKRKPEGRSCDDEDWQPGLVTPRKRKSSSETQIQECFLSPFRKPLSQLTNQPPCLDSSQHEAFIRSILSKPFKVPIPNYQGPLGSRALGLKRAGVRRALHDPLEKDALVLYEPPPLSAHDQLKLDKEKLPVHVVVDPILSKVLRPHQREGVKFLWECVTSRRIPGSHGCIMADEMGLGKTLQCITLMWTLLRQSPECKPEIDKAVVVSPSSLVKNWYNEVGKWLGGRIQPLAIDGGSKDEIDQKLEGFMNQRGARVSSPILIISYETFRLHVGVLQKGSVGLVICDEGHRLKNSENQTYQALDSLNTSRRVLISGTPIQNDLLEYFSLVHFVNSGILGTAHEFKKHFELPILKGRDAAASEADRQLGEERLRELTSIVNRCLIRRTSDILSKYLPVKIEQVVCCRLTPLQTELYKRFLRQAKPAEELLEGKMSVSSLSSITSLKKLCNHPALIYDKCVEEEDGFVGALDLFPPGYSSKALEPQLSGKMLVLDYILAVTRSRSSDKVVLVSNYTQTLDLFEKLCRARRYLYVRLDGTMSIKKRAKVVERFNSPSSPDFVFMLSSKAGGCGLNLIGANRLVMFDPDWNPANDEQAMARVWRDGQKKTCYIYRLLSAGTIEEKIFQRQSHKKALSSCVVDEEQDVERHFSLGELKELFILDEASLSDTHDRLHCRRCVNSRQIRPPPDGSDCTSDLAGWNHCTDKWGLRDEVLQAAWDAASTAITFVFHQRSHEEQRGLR
# [8] = biological target: T2, Corticotropin-releasing factor receptor 2/Corticotropin-releasing factor-binding protein; test: Dose Response confirmation of uHTS hits for small molecule antagonists of the CRF-binding protein and CRF-R2 receptor complex.; format: functional; conditions: read-out: IC50_Mean
# [9] = CRF-BP/CRF-R2 complex antagonists, dose response, cell-based, uHTS hits, 384-well (AID 651639); format: functional, Homo sapiens; conditions: read-out: IC50_Mean
smiles,measurement,setting,value
NC(CO)c1cn([C@@H](CCC(=O)O)C(=O)N2CCNCC2)nn1 (some centres not stated),EC50,Insulin-degrading enzyme [1],> 54.7 µM (inactive)
same,EC50,Insulin-degrading enzyme [2],> 54.7 µM (inactive)
same,IC50,HEK293 [3],> 89.2 µM (inactive)
same,EC50,HEK293 [4],> 55.9 µM (inactive)
CO[C@@]12[C@@H]3N[C@@H]3CN1C1=C(C(=O)C(N)=C(C)C1=O)[C@@H]2COC(N)=O,AC50,Escherichia coli,0.496 µM (active)
C[C@@H]1CN([C@H](C)CO)C(=O)Cc2cc(NC(=O)C3CCCCC3)ccc2O[C@@H]1CN(C)Cc1ccc(Cl)c(Cl)c1,AC50,[5],2.15 µM (active)
O=C(CCNC(=O)c1ccc([N+](=O)[O-])cc1)Nc1cccc(S(=O)(=O)N2CCCCCC2)c1,AC50,Escherichia coli,57 µM (active)
Cc1ccc(O)c(NC(=S)NC(=O)COc2ccc(Br)cc2)c1,EC50,Insulin-degrading enzyme [1],> 54.7 µM (inactive)
same,EC50,Insulin-degrading enzyme [2],> 54.7 µM (inactive)
same,IC50,HEK293 [3],10.7 µM (inactive)
same,EC50,HEK293 [4],> 55.9 µM (inactive)
same,EC50,[6],7 µM (active)
COc1cc2nc3c(O)n(CCN(C(C)C)C(C)C)cnc-3c2cc1OC,AC50,[7],47.7 µM (active)
O=C(c1ccco1)N1N=C(c2cccs2)CC1c1ccccc1O (configuration not stated),IC50,[8],6.11 µM (active)
same,EC50,[6],> 53 µM (inactive)
same,IC50,[9],12.8 µM (active)
C[C@@H]1CN([C@H](C)CO)C(=O)Cc2cc(N(C)C)ccc2O[C@H]1CN(C)Cc1ccc(C(=O)Nc2ccccc2N)cc1,AC50,[5],3.46 µM (active)
